According to patent US20150105252A1, “SUBSTITUTED PYRAZOLES AS HERBICIDES” (E I DU PONT DE NEMOURS AND COMPANY, priority 2013, published 2015):

How the values were obtained:
soybean = test: Test C preemergence; assay type: in vivo, Glycine max
How it was run: (§1)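 Pre- and postemergence greenhouse screen; vehicle was a non-phytotoxic solvent mix with surfactant. Preemergence: treatment applied right after sowing into loam and sand. Postemergence: treated at 1–4 leaves. Visual rating at 13–15 days, 100 = complete control.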

velvetleaf = test: Test A postemergence; assay type: in vivo, Abutilon theophrasti
How it was run: (§2)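 After sowing in a sand–loam mix, pots received compound preemergence by directed soil spray, or postemergence once plants reached the one- to two-leaf stage (2–10 cm). Formulation contained surfactant in a non-phytotoxic solvent. Injury was scored visually after ~10 greenhouse days, 0–100 scale.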

sedge, umbrella = test: Test B flood; assay type: in vivo, Cyperus difformis; settings: 250 g ai/ha, visual rating on 0 to 100 scale (0 no effect, 100 complete control), 13 to 15 days
How it was run: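 2-leaf plants; pots flooded 3 cm over soil; compound added to paddy water, depth kept constant. Greenhouse 13–15 d. Visual rating vs controls, 0–100 scale (100 = complete control); dash = no result.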

waterhemp = test: Test C preemergence; assay type: in vivo, Amaranthus rudis
How it was run: as §1

barnyardgrass [1] = test: Test A postemergence; assay type: in vivo, Echinochloa crus-galli
How it was run: as §2

oat, wild = test: Test C postemergence; assay type: in vivo, Avena fatua; settings: for Plant response rating (scale of 0 to 100 where 0 is no effect and 100 is complete control), Oat, Wild: Postemergence, 31 g ai/ha, visually evaluated after 13 to 15 days; for Oat, Wild plant response rating / Plant response rating, Oat, Wild: postemergence; for Oat, Wild plant response rating: 62 g ai/ha, scale 0 to 100
How it was run: as §1

barnyardgrass [2] = test: Test A preemergence; assay type: in vivo, Echinochloa crus-galli; settings: preemergence; for Barnyardgrass plant response rating (0 to 100 scale, 0 is no effect, 100 is complete control): 125 g ai/ha, visual injury approx. 10 days after treatment; for Barnyardgrass plant response rating: 500 g ai/ha, visual injury after approx. 10 days, 0 to 100 scale (0 no effect, 100 complete control)
How it was run: as §2

ryegrass, Italian [3] = test: Test C preemergence; assay type: in vivo, Lolium multiflorum
How it was run: as §1

pigweed = test: Test C preemergence; assay type: in vivo, Amaranthus retroflexus
How it was run: as §1

ryegrass, Italian [4] = test: Test C postemergence; assay type: in vivo, Lolium multiflorum; settings: postemergence
How it was run: as §1

wheat = test: Test A postemergence; assay type: in vivo, Triticum aestivum
How it was run: as §2

johnsongrass = test: Test C postemergence; assay type: in vivo, Sorghum halepense; settings: for Plant response rating (scale of 0 to 100 where 0 is no effect and 100 is complete control), Johnsongrass: Postemergence, 31 g ai/ha, visually evaluated after 13 to 15 days; for Johnsongrass plant response rating / Plant response rating, Johnsongrass: postemergence; for Johnsongrass plant response rating: 62 g ai/ha, scale 0 to 100
How it was run: as §1

corn = test: Test A preemergence; assay type: in vivo, Zea mays; settings: preemergence; for Corn plant response rating (0 to 100 scale): 125 g ai/ha, visual injury approx. 10 days after treatment; for Corn plant response rating: 500 g ai/ha, visual injury after approx. 10 days, 0 to 100 scale (0 no effect, 100 complete control)
How it was run: as §2

[5] = preemergence, 31 g ai/ha, visual rating, scale 0 to 100 (0 no effect, 100 complete control), 13 to 15 days
[6] = preemergence, 62 g ai/ha, scale 0 to 100 (0 no effect, 100 complete control), 13 to 15 days
[7] = preemergence, 125 g ai/ha, 13 to 15 days, scale 0 to 100, 0 = no effect, 100 = complete control
[8] = preemergence, 250 g ai/ha, scale 0 to 100, 0 is no effect, 100 is complete control
[9] = Postemergence, 500 g ai/ha, 0 to 100 scale (0 no effect, 100 complete control)
[10] = postemergence, 125 g ai/ha, about 10 days, visual rating on 0 to 100 scale (0 no effect, 100 complete control)
[11] = 250 g ai/ha, scale 0 to 100 (0 no effect, 100 complete control)
[12] = 125 g ai/ha, scale 0 to 100, 0 no effect, 100 complete control
[13] = Preemergence, rate head not shown (block before 16 g ai/ha), scale 0 to 100
[14] = Postemergence, 125 g ai/ha, 0 to 100 scale, 0 no effect, 100 complete control

Structure (SMILES)	Soybean plant response rating (soybean; [6])	Plant response rating, Soybean (soybean; [7])	Soybean plant response rating (soybean; [8])	Velvetleaf plant response rating (velvetleaf; [9])	Plant response rating, Sedge, Umbrella (sedge, umbrella)	Waterhemp plant response rating (waterhemp; [6])	Plant response rating, Waterhemp (waterhemp; [7])	Waterhemp plant response rating (waterhemp; [8])	Barnyardgrass plant response rating (barnyardgrass [1]; [9])	Plant response rating (scale of 0 to 100 where 0 is no effect and 100 is complete control), Oat, Wild (oat, wild)	Oat, Wild plant response rating (oat, wild)	Plant response rating, Oat, Wild (oat, wild; [11])	Plant response rating, Oat, Wild (oat, wild; [12])	Barnyardgrass plant response rating (0 to 100 scale, 0 is no effect, 100 is complete control) (barnyardgrass [2])	Barnyardgrass plant response rating (barnyardgrass [2])	Ryegrass, Italian plant response rating (ryegrass, Italian [3]; [6])	Plant response rating, Ryegrass, Italian (ryegrass, Italian [3]; [7])	Ryegrass, Italian plant response rating (ryegrass, Italian [3]; [8])	Pigweed plant response rating (pigweed; [6])	Plant response rating, Pigweed (pigweed; [7])	further results
CCCNC(=O)c1cc(CCF)n(Cc2ccnc(C(F)(F)F)c2)n1 [Compound 177]	70	95	98	100	95	98	98	100	100	5	5	40	15	100	100	40	85	90	100	100	Soybean plant response rating (soybean; [5]): 40; Velvetleaf plant response rating (velvetleaf; [10]): 40; Waterhemp plant response rating (waterhemp; [5]): 98; Barnyardgrass plant response rating (barnyardgrass [1]; [10]): 100; Ryegrass, Italian plant response rating (ryegrass, Italian [3]; [5]): 5; Pigweed plant response rating (pigweed; [5]): 100; Pigweed plant response rating (pigweed; [8]): 100; Plant response rating, Ryegrass, Italian (ryegrass, Italian [4]; [11]): 5; Plant response rating, Ryegrass, Italian (ryegrass, Italian [4]; [12]): 5; Wheat plant response rating (wheat; [9]): 100; Wheat plant response rating (wheat; [10]): 50; Plant response rating (scale of 0 to 100 where 0 is no effect and 100 is complete control), Johnsongrass (johnsongrass): 0; Johnsongrass plant response rating (johnsongrass): 0; Plant response rating, Johnsongrass (johnsongrass; [11]): 5; Plant response rating, Johnsongrass (johnsongrass; [12]): 5; Corn plant response rating (0 to 100 scale) (corn): 80; Corn plant response rating (corn): 90
CCc1cc(C(=O)NCC(F)(F)F)nn1Cc1ccnc(Br)c1 [Compound 224]	40	65	90	100	90	100	100	100	100	5	5	10	10	90	100	60	50	30	100	100	Plant response rating, Soybean (soybean; [13]): 10; Velvetleaf plant response rating (velvetleaf; [14]): 60; Plant response rating, Waterhemp (waterhemp; [13]): 100; Barnyardgrass plant response rating (barnyardgrass [1]; [14]): 90; Plant response rating, Ryegrass, Italian (ryegrass, Italian [3]; [13]): 10; Plant response rating, Pigweed (pigweed; [13]): 100; Pigweed plant response rating (pigweed; [8]): 100; Plant response rating, Ryegrass, Italian (ryegrass, Italian [4]; [11]): 5; Plant response rating, Ryegrass, Italian (ryegrass, Italian [4]; [12]): 5; Wheat plant response rating (wheat; [14]): 30; Wheat plant response rating (wheat; [9]): 90; Plant response rating (scale of 0 to 100 where 0 is no effect and 100 is complete control), Johnsongrass (johnsongrass): 20; Johnsongrass plant response rating (johnsongrass): 5; Plant response rating, Johnsongrass (johnsongrass; [11]): 5; Plant response rating, Johnsongrass (johnsongrass; [12]): 5; Corn plant response rating (0 to 100 scale) (corn): 30; Corn plant response rating (corn): 90
CCc1cc(C(=O)NCC(F)(F)F)nn1Cc1ccnc(SC(F)(F)F)c1 [Compound 214]	85	90	95	100	95	100	100	100	100	10	15	40	15	100	100	30	70	80	100	100	Soybean plant response rating (soybean; [5]): 60; Velvetleaf plant response rating (velvetleaf; [14]): 80; Waterhemp plant response rating (waterhemp; [5]): 100; Barnyardgrass plant response rating (barnyardgrass [1]; [14]): 100; Ryegrass, Italian plant response rating (ryegrass, Italian [3]; [5]): 5; Pigweed plant response rating (pigweed; [5]): 100; Pigweed plant response rating (pigweed; [8]): 100; Plant response rating, Ryegrass, Italian (ryegrass, Italian [4]; [11]): 15; Plant response rating, Ryegrass, Italian (ryegrass, Italian [4]; [12]): 5; Wheat plant response rating (wheat; [14]): 80; Wheat plant response rating (wheat; [9]): 90; Plant response rating (scale of 0 to 100 where 0 is no effect and 100 is complete control), Johnsongrass (johnsongrass): 0; Johnsongrass plant response rating (johnsongrass): 0; Plant response rating, Johnsongrass (johnsongrass; [11]): 5; Plant response rating, Johnsongrass (johnsongrass; [12]): 5; Corn plant response rating (0 to 100 scale) (corn): 10; Corn plant response rating (corn): 90
